Test results as given in patent US20130096088A1, “Inhibitors of Protein Tyrosine Kinase Activity” (METHYLGENE INC., priority 2011, published 2013).

Legend:
VEGFR2 (KDR) = target: T1, VEGFR2 (KDR) (Homo sapiens, UniProt P35968); assay: In vitro receptor tyrosine kinase assay (VEGF receptor KDR), DELFIA; format: biochemical; settings: recombinant GST-VEGFR2 806-1356, ATP 0.6 uM; read-out: VEGFR IC50UM
T1 construct: made in house; host or cells: Sf9 cells (Spodoptera frugiperda), baculovirus
Text: In Vitro Receptor Tyrosine Kinase Assay (VEGF Receptor KDR)
This test measures the ability of compounds to inhibit the enzymatic activity of recombinant human VEGF receptor enzymatic activity.
A 1.6-kb cDNA corresponding to the catalytic domain of VEGFR2 (KDR) (Genbank accession number AF035121 amino acid 806 to 1356) is cloned into the Pst I site of the pDEST20 Gateway vector (Invitrogen) for the production of a GST-tagged version of that enzyme. This construct is used to generate recombinant baculovirus using the Bac-to-Bac™ system according to the manufacturer's instructions (Invitrogen).
The GST-VEGFR2806-1356 protein is expressed in Sf9 cells (Spodoptera frugiperda) upon infection with recombinant baculovirus construct. Briefly, Sf9 cells grown in suspension and maintained in serum-free medium (Sf900 II supplemented with gentamycin) at a cell density of about 2×10^6 cells/ml are infected with the above-mentioned viruses at a multiplicity of infection (MOI) of 0.1 during 72 hours at 27° C. with agitation at 120 rpm on a rotary shaker. Infected cells are harvested by centrifugation at 398 g for 15 min. Cell pellets are frozen at −80° C. until purification is performed.
All steps described in cell extraction and purification are performed at 4° C. Frozen Sf9 cell pellets infected with the GST-VEGFR2806-1356 recombinant baculovirus are thawed and gently resuspended in Buffer A (PBS pH 7.3 supplemented with 1 μg/ml pepstatin, 2 μg/ml Aprotinin and leupeptin, 50 μg/ml PMSF, 50 μg/ml TLCK and 10 μM E64 and 0.5 mM DTT) using 3 ml of buffer per gram of cells. Suspension is Dounce homogenized and 1% Triton X-100 is added to the homogenate after which it is centrifuged at 22500 g, 30 min., 4° C. The supernatant (cell extract) is used as starting material for purification of GST-VEGFR2806-1356.
The supernatant is loaded onto a GST-agarose column (Sigma) equilibrated with PBS pH 7.3. Following a four column volume (CV) wash with PBS pH 7.3+1% Triton X-100 and 4 CV wash with buffer B (50 mM Tris pH 8.0, 20% glycerol and 100 mM NaCl), bound proteins are step eluted with 5 CV of buffer B supplemented with 5 mM DTT and 15 mM glutathion. GST-VEGFR2806-1356 enriched fractions from this chromatography step are pooled based on U.V. trace i.e. fractions with high O.D.280. Final GST-VEGFR2806-1356 protein preparations concentrations are about 0.7 mg/ml with purity approximating 70%. Purified GST-VEGFR2806-1356 protein stocks are aliquoted and frozen at −80° C. prior to use in enzymatic assay.
Inhibition of VEGFR/KDR is measured in a DELFIA™ assay (Perkin Elmer). The substrate poly(Glu4,Tyr) is immobilized onto black high-binding polystyrene 96-well plates. The coated plates are washed and stored at 4° C. During the assay, the enzyme is pre-incubated with inhibitor and Mg-ATP on ice in polypropylene 96-well plates for 4 minutes, and then transferred to the coated plates. The subsequent kinase reaction takes place at 30° C. for 10-30 minutes. ATP concentrations in the assay are 0.6 uM for VEGFR/KDR (2× the Km). Enzyme concentration is 5 nM. After incubation, the kinase reactions are quenched with EDTA and the plates are washed. Phosphorylated product is detected by incubation with Europium-labeled anti-phosphotyrosine MoAb. After washing the plates, bound MoAb is detected by time-resolved fluorescence in a Gemini SpectraMax reader (Molecular Devices). Compounds are evaluated over a range of concentrations, and IC50 values (concentration of compounds giving 50% inhibition of enzymatic activity) are determined.

[1] = system: laser-induced choroidal neovascularization (CNV); assay: In vivo choroidal neovascularization (CNV) model; set-up: species or system rat; settings: Rattus norvegicus, 240 h; Brown-Norway rats, dose 3 nmol/eye, injection on Day 3, CNV area on Day 10; read-out: Inhibition of CNV Progression (%)
Text: In Vivo Choroidal Neovascularization (CNV) Model This test measures the capacity of compounds to inhibit CNV progression. CNV is the main cause of severe vision loss in patients suffering from age-related macular degeneration (AMD). Male Brown-Norway rats (Charles River Japan Co., Ltd.) were used in these studies. Rats were anesthetized by intraperitoneal injection of pentobarbital, and the right pupil was dilated with 0.5% tropicamide and 0.5% phenylephrine hydrochloride. The right eye received 6 laser burns between retinal vessels using a slit lamp delivery system of Green laser Photocoagulator (Nidex Inc., Japan), and microscope slide glass with 10 mg/mL hyaluronic acid (SIGMA) used as a contact lens. The laser power was 200 mW for 0.1 second and spot diameter was 100 μm. At the time of laser burn, bubble production was observed; which is an indication of rupture of Bruch's membrane which is important for CNV generation. After animals were anesthetized, and the right pupil dilated (as mentioned above), the right eye of the animal received the compound or vehicle by an injection (3 μL/eye) at doses of 3 or 10 nmol/eye on Day 3. The compounds were dissolved or suspended in CBS, PBS, or other adequate vehicles before injection. On Day 10, the animals were anesthetized with ether, and high molecular weight fluorescein isothiocyanate (FITC)-dextran (SIGMA, 2×10^6 MW) was injected via a tail vein (20 mg/rat). About 30 min after FITC-dextran injection, animals were euthanized by ether or carbon dioxide, and the eyes were removed and fixed with 10% formaline neutral buffer solution. After over 1 hour of fixation, RPE-choroid-sclera flat mounts were obtained by removing cornea, lens and retina from the eyeballs. The flat mounts were mounted in 50% glycerol on a microscope slide, and the portion burned by laser was photographed using a fluorescence microscope (Nikon Corporation, excitation filter: 465-495 nm, absorption filter: 515-555 nm). The CNV area was obtained by measurement of hyper-fluorescence area observed on the photograph using Scion image. The average CNV area of 6 burns was used as an individual value of CNV area, and the average CNV area of compound treated group was compared with that of the vehicle-treated group.

T1 sequence (P35968 806-1356): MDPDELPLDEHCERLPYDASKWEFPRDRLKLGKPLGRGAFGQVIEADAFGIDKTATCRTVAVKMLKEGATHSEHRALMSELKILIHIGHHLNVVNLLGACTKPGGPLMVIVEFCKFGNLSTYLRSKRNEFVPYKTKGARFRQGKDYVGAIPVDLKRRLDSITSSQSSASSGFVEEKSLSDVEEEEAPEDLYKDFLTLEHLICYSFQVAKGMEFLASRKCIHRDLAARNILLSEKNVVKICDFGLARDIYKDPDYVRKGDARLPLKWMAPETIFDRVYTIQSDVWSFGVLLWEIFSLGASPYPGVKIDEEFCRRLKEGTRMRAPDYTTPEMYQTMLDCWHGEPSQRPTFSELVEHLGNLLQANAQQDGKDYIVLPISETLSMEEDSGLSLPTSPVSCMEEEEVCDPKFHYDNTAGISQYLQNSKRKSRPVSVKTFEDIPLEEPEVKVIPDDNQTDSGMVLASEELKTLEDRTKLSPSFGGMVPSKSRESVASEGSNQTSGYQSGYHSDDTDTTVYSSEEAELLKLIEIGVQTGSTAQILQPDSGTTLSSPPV

Structure (SMILES)	IC50 (VEGFR2 (KDR)) [µM]	inhibition in vivo at 3 nmol/eye [1] [%]
O=C(Nc1ccc(Oc2ccnc3cc(-c4ccc(CN5CCOCCOCCOCCOCCOCC5)cn4)sc23)c(F)c1)NC1CC1 [Compound 8, 1-(4-(2-(5-((1,4,7,10,13-Pentaoxa-16-azacyclooctadecan-16-yl)methyl)pyridin-2-yl)thieno[3,2-b]pyridin-7-yloxy)-3-fluorophenyl)-3-cyclopropylurea]	0.013	
CC(C)[C@H](N)C(=O)N[C@H](C(=O)OCC(=O)N1CCN(Cc2ccc(-c3cc4nccc(Oc5ccc(NC(=O)NC6CC6)cc5F)c4s3)nc2)CC1)C(C)C [Compound 12, (S)-2-(4-((6-(7-(4-(3-Cyclopropylureido)-2-fluorophenoxy)thieno[3,2-b]pyridin-2-yl)pyridin-3-yl)methyl)piperazin-1-yl)-2-oxoethyl 2-((S)-2-amino-3-methylbutanamido)-3-methylbutanoate]	0.013	47
CC(C)[C@H](NC(=O)CN)C(=O)OCC(=O)N1CCN(Cc2ccc(-c3cc4nccc(Oc5ccc(NC(=O)NC6CC6)cc5F)c4s3)nc2)CC1 [Compound 13]	0.01	41.6
COCCOCCOCCOCCC(=O)OCC(=O)N1CCN(Cc2ccc(-c3cc4nccc(Oc5ccc(NC(=O)NC6CC6)cc5F)c4s3)nc2)CC1 [Compound 18]	0.006	42.9
COCCOCCOCCOCCOCCC(=O)OCC(=O)N1CCN(Cc2ccc(-c3cc4nccc(Oc5ccc(NC(=O)NC6CC6)cc5F)c4s3)nc2)CC1 [Compound 19]	0.02	
COCCOCCOCCOCCNC1CCN(Cc2ccc(-c3cc4nccc(Oc5ccc(NC(=O)NC6CC6)cc5F)c4s3)nc2)CC1 [Compound 22, 1-(4-(2-(5-((4-(2,5,8,11-Tetraoxamidecan-13-ylamino)piperidin-1-yl)methyl)pyridin-2-yl)thieno[3,2-b]pyridin-7-yloxy)-3-fluorophenyl)-3-cyclopropylurea]	0.013	
CCNC(=O)N(CCOCCOCCOCCOC)C1CCN(Cc2ccc(-c3cc4nccc(Oc5ccc(NC(=O)NC6CC6)cc5F)c4s3)nc2)CC1 [Compound 23, 1-(4-(2-(5-((4-Ethylaminocarbonyl-(2,5,8,11-tetraoxamidecan-13-ylamino)piperidin-1-yl)methyl)pyridin-2-yl)thieno[3,2-b]pyridin-7-yloxy)-3-fluorophenyl)-3-cyclopropylurea]	0.018	44.2
COCCOCCOCCOCCN(C(=O)CO)C1CCN(Cc2ccc(-c3cc4nccc(Oc5ccc(NC(=O)NC6CC6)cc5F)c4s3)nc2)CC1 [Compound 24]	0.015	28.9
COCCOCCOCCOCCN(C(=O)C(F)(F)F)C1CCN(Cc2ccc(-c3cc4nccc(Oc5ccc(NC(=O)NC6CC6)cc5F)c4s3)nc2)CC1 [Compound 25]	0.053	20.9
COCCOCCOCCOCCN(C1CCN(Cc2ccc(-c3cc4nccc(Oc5ccc(NC(=O)NC6CC6)cc5F)c4s3)nc2)CC1)S(C)(=O)=O [Compound 26]	0.013	
COCCOCCOCCOCCOCCn1cc(-c2cc3nccc(Oc4ccc(NC(=O)NC5CC5)cc4F)c3s2)nn1 [Compound 33, 1-(4-(2-(1-(2,5,8,11,14-Pentaoxahexadecan-16-yl)-1H-1,2,3-triazol-4-yl)thieno[3,2-b]pyridin-7-yloxy)-3-fluorophenyl)-3-cyclopropylurea]	0.107	
COCCOCCOCCOCCOc1ccccc1NCc1ccc(-c2cc3nccc(Oc4ccc(NC(=O)NC5CC5)cc4F)c3s2)nc1 [Compound 38, 1-(4-(2-(5-((2-(2,5,8,11-Tetraoxamidecan-13-yloxy)phenylamino)methyl)pyridin-2-yl)thieno[3,2-b]pyridin-7-yloxy)-3-fluorophenyl)-3-cyclopropylurea]	0.024	
COCCOCCOCCOCCOc1cccc(NCc2ccc(-c3cc4nccc(Oc5ccc(NC(=O)NC6CC6)cc5F)c4s3)nc2)c1 [Compound 40]	0.024	
COCCOCCOCC(=O)N1CC(N(CC(=O)O)Cc2ccc(-c3cc4nccc(Oc5ccc(NC(=O)NC6CC6)cc5F)c4s3)nc2)C1 [Compound 45, 2-(((6-(7-(4-(3-Cyclopropylureido)-2-fluorophenoxy)thieno[3,2-b]pyridin-2-yl)pyridin-3-yl)methyl)(1-(2-(2-(2-methoxyethoxy)ethoxy)acetyl)azetidin-3-yl)amino)acetic acid]	0.003	
COCCOCCOCCOCCC(=O)N1CCN(Cc2ccc(-c3cc4nccc(Oc5ccc(NC(=O)NC6CC6)cc5F)c4s3)nc2)CC1 [Compound 46, 1-(4-(2-(5-((4-2,5,8,11-Tetraoxatetradecanepiperazin-1-yl)methyl)pyridin-2-yl)thieno[3,2-b]pyridin-7-yloxy)-3-fluorophenyl)-3-cyclopropylurea]	0.011	24.8
COCCOCCOCCOCC(=O)N1CCN(Cc2ccc(-c3cc4nccc(Oc5ccc(NC(=O)NC6CC6)cc5F)c4s3)nc2)CC1 [Compound 47]	0.012	
COCCOCCOCCOCCOCC(=O)N1CCN(Cc2ccc(-c3cc4nccc(Oc5ccc(NC(=O)NC6CC6)cc5F)c4s3)nc2)CC1 [Compound 48]	0.013	
COCCOCCOCCOCCOCCOC(=O)N1CCN(Cc2ccc(-c3cc4nccc(Oc5ccc(NC(=O)NC6CC6)cc5F)c4s3)nc2)CC1 [Compound 52]	0.013	
COCCOCCOCCNC(=O)N1CCN(Cc2ccc(-c3cc4nccc(Oc5ccc(NC(=O)NC6CC6)cc5F)c4s3)nc2)CC1 [Compound 54, 4-((6-(7-(4-(3-Cyclopropylureido)-2-fluorophenoxy)thieno[3,2-b]pyridin-2-yl)pyridin-3-yl)methyl)-N-(2-(2-(2-methoxyethoxy)ethoxy)ethyl)piperazine-1-carboxamide]	0.002	
COCCOCCOCCOCCNC(=O)N1CCN(Cc2ccc(-c3cc4nccc(Oc5ccc(NC(=O)NC6CC6)cc5F)c4s3)nc2)CC1 [Compound 55]	0.002	
COCCOCCOCCOCCOCCNC(=O)N1CCN(Cc2ccc(-c3cc4nccc(Oc5ccc(NC(=O)NC6CC6)cc5F)c4s3)nc2)CC1 [Compound 56]	0.002	
